Earlier results, collected in patent US7018649B2 (Euro-Celtique, S.A., priority 2000, dated 2006).

Assays:
[1] = not given; remark: listed apart in the source
[2] = in vivo

solubility in dichloromethane and ethanol (dichloromethane and ethanol): freely soluble | solubility in water (water): not soluble | time to mean peak concentrations ([1]; after administration): 2.5 to 5 h | excretion in the feces ([1]; after metabolism): 10% | excretion in the urine ([1]; after metabolism): 70% | onset of antihypertensive activity ([1]; following administration): 2 to 5 h | plasma concentration at steady state ([1]; in vivo): 2 ng/mL | bioavailability ([1]; oral dose, gastrointestinal absorption): approximately 20% | plasma-protein bound (plasma-protein): 99%
Compound: CCOC(=O)C1=C(C)NC(C)=C(C(=O)OC)C1c1cccc(Cl)c1Cl (racemic) [felodipine, 4-(2,3-dichlorophenyl)-1,4-dihydro-2,6-dimethyl-3,5-pyridinedicarboxylate]
most common adverse side effects [2]: peripheral edema and headaches
